Experimental data reported in PubChem BioAssay (NCI).
“And” between values parts separate entries of the source, which are not always exact repeats. Equal values may be shown once.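 Step 1: Grow cells in 96-well plates. Step 2: Expose to compound for 48 hours at 5 concentrations. Step 3: Interpolate endpoints linearly; if unreached, use highest concentration. GI50 is the concentration that inhibits growth by half. TGI: total growth inhibition.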

Legend:
Test in all cases: NCI tumour cell line growth inhibition, 48 h
[1] = system: HCC-2998 colon
[2] = system: IGROV1 ovarian
[3] = system: KM12 colon
[4] = system: A549 NSCLC
[5] = system: HL-60(TB) leukemia
[6] = system: SW-620 colon
[7] = system: MDA-MB-231 breast
[8] = system: NCI/ADR-RES ovarian
[9] = system: PC-3 prostate
[10] = system: T-47D breast

| SMILES | TGI [1] | TGI [2] | TGI [3] | TGI [4] | TGI [5] | TGI [6] | TGI [7] | TGI [8] | TGI [9] | TGI [10] | GI50 [6] | GI50 [7] | GI50 [1] | GI50 [8] | GI50 [2] | GI50 [3] | GI50 [9] | GI50 [10] | GI50 [4] | GI50 [5] |
| --- | --- | --- | --- | --- | --- | --- | --- | --- | --- | --- | --- | --- | --- | --- | --- | --- | --- | --- | --- | --- |
| C=C[C@@H](C)[C@]1(C(=O)OC)CCCC12OCCO2 | > 100 µM | > 100 µM | > 100 µM | > 100 µM | > 100 µM | – | – | – | – | – | – | – | – | – | – | – | – | – | – | – |
| O=C(CCC(=O)Nc1ccc(Cl)c(Cl)c1)Cc1nc2ccccc2o1 | > 100 µM | > 100 µM | > 100 µM | > 100 µM | > 100 µM | > 100 µM | – | – | – | – | – | – | – | – | – | – | – | – | – | – |
| Cc1nc([N+](=O)[O-])cn1-c1nc2ccccn2c1[N+](=O)[O-] | > 100 µM | > 100 µM | > 100 µM | > 100 µM | – | > 100 µM | > 100 µM | > 100 µM | > 100 µM | > 100 µM | – | – | – | – | – | – | – | – | – | – |
| COC(COC(N)=O)C1=C(N2CC2)C(=O)C(C)=C(N2CC2)C1=O (stereo not drawn) | 0.311 µM | 0.995 µM | 0.365 µM | 2.21 µM | 2.72 µM | 0.703 µM | 0.859 µM | 0.101 µM | 1.51 µM | – | – | – | – | – | – | – | – | – | – | – |
| CSc1ccc2c(cc1=O)[C@@H](NC(=O)c1cccc([N+](=O)[O-])c1)CCc1cc(O)c(O)c(O)c1-2 | > 100 µM | > 100 µM | > 100 µM | > 100 µM | > 100 µM | 61.1 µM | – | – | – | – | – | – | – | – | – | – | – | – | – | – |
| Cc1cnc2ccc(C)c([N+](=O)[O-])c2c1NCCCN(C)C | > 100 µM | – | > 100 µM | > 100 µM | > 100 µM | > 100 µM | – | – | – | – | – | – | – | – | – | – | – | – | – | – |
| O=C(NCCCCN1CCOCC1)c1cc2ccccc2o1 | > 100 µM | > 100 µM | > 100 µM | > 100 µM | – | > 100 µM | > 100 µM | > 100 µM | > 100 µM | > 100 µM | > 100 µM | > 100 µM | > 100 µM | > 100 µM | > 100 µM | > 100 µM | > 100 µM | > 100 µM | > 100 µM | – |
| Cc1c(C)c2ccc3oc4ccccc4c3c2oc1=O | > 100 µM | > 100 µM | > 100 µM | > 100 µM | > 100 µM | > 100 µM | – | – | – | – | – | – | – | – | – | – | – | – | – | – |
| Cc1ccc(C)c(N2C(=O)C(=O)C(c3nc4ccccc4s3)/C(=N/N)C2=O)c1 (stereo not drawn) | > 100 µM | > 100 µM | > 100 µM | > 100 µM | > 100 µM | > 100 µM | – | – | – | – | – | – | – | – | – | – | – | – | – | – |
| O=C1NC(=C(Cl)Cl)/C(=N/S(=O)(=O)N2CCCCC2)N1 | 5.22 µM | – | 10.3 µM | 22.2 µM | 4.52 µM | 4.17 µM | 3.42 µM | 29.2 µM | 10.5 µM | 64.5 µM | 2.11 µM | 1.85 µM | 2.28 µM | 3.87 µM | – | 0.499 µM | 3.05 µM | 5.94 µM | 6.85 µM | 1.86 µM |
| CCOC(OC(C)=O)[C@@H]1C=C[C@H](C)N(c2ccc([N+](=O)[O-])cc2)O1 (stereo partly drawn) | 26.3 µM | 29 µM | 7.82 µM | 43.4 µM | 4.79 µM | 9.2 µM | – | – | – | – | – | – | – | – | – | – | – | – | – | – |
| O=C(O)c1cc(-c2ccc3cc4c(cc3c2)OCO4)nc2ccccc12 | – | > 100 µM | > 100 µM | > 100 µM | > 100 µM | > 100 µM | > 100 µM | > 100 µM | > 100 µM | > 100 µM | – | – | – | – | – | – | – | – | – | – |
| COc1cc2cc(OC(C)=O)c3cc4c(cc3c2c(OC)c1OC)OCO4 | > 100 µM | > 100 µM | > 100 µM | > 100 µM | > 100 µM | > 100 µM | – | – | – | – | – | – | – | – | – | – | – | – | – | – |
| COC(=O)c1cc2c(=O)n(C)c3ccccc3n2c1C(=O)OC | > 100 µM | > 100 µM | > 100 µM | > 100 µM | – | > 100 µM | – | – | – | – | – | – | – | – | – | – | – | – | – | – |
| COc1cc(/C=C2\CC3C4CC=C5C[C@@H](OC(C)=O)CC[C@]5(C)C4CC[C@]3(C)C2=O)ccc1OCCN1CCCCC1 (stereo partly drawn) | 6.59 µM | – | 4.27 µM | > 100 µM | – | 7.32 µM | 7.89 µM | 6.89 µM | 11.2 µM | 13.1 µM | 3.18 µM | 3.31 µM | 2.7 µM | 3.56 µM | – | 1.99 µM | 3.51 µM | 2.98 µM | 3.42 µM | – |
| C=C(C)[C@H]1CC[C@@]2(C)C(C1)[C@H](C)CC[C@@H]2O (stereo partly drawn) | > 100 µM | > 100 µM | > 100 µM | > 100 µM | – | > 100 µM | – | – | – | – | – | – | – | – | – | – | – | – | – | – |
| CN(CCS(=O)(=O)N1C(=O)C2CCCN2C(=O)[C@@H]1Cc1ccccc1)C(=O)OCc1ccccc1 (stereo partly drawn) | > 100 µM | > 100 µM | > 100 µM | > 100 µM | 27.4 µM | > 100 µM | – | – | – | – | – | – | – | – | – | – | – | – | – | – |
| CC(=O)Nc1ccc(/C=C/C(=O)c2sc(-c3cccnc3)nc2C)cc1 | > 100 µM | > 100 µM | > 100 µM | > 100 µM | > 100 µM | > 100 µM | – | – | – | – | – | – | – | – | – | – | – | – | – | – |
| O=C1C=C(Nc2ccc(Cl)cc2Cl)c2ccccc2C1=O | > 100 µM | > 100 µM | > 100 µM | > 100 µM | 92.5 µM | > 100 µM | – | – | – | – | – | – | – | – | – | – | – | – | – | – |
| O=C(O)CCNCC(=O)O | – | > 100 µM | > 100 µM | > 100 µM | > 100 µM | > 100 µM | > 100 µM | > 100 µM | > 100 µM | > 100 µM | – | – | – | – | – | – | – | – | – | – |
| O=C1[C@H]2ON(c3ccccc3)C(c3ccc([N+](=O)[O-])cc3)[C@H]2C(=O)N1c1ccc(Cc2ccc(N3C(=O)[C@@H]4ON(c5ccccc5)C(c5ccc([N+](=O)[O-])cc5)[C@@H]4C3=O)cc2)cc1 (stereo partly drawn) | > 100 µM | > 100 µM | > 100 µM | > 100 µM | > 100 µM | > 100 µM | – | – | – | – | – | – | – | – | – | – | – | – | – | – |
| CCOC(=O)c1cc(C(=O)c2ccc(OC)cc2)n2ccc(/C=C/c3cc[n+](CC(=O)c4ccc(OC)cc4)cc3)cc12 | – | 4.46 µM | – | > 100 µM | 4.24 µM | 4.02 µM | 3.22 µM | > 100 µM | 5.96 µM | 4.43 µM | 1.72 µM | 1.58 µM | – | > 100 µM | 1.74 µM | – | 2.03 µM | 1.91 µM | 3.96 µM | 1.78 µM |
| COC(=O)[C@@H]1c2cc3c(c(O)c2[C@@H](OC2OC(C)C(OC)C(C)(OC)C2OC)C[C@]1(C)O)C(=O)c1c(O)cc2c(c1C3=O)O[C@H]1O[C@]2(C)[C@H](O)[C@@H](N(C)C)[C@@H]1O (stereo partly drawn) | 0.0305 µM and 0.0223 µM | 0.65 µM and 4.74 µM | 0.0425 µM and 0.0508 µM | 10.3 µM | 0.107 µM | 0.292 µM and 1.37 µM | 0.214 µM | – | 0.297 µM | 0.889 µM | – | – | – | – | – | – | – | – | – | – |
